# From patent publication US9181273B2, “Morpholine-spirocyclic piperidine amides as modulators of ion channels” (Vertex Pharmaceuticals Incorporated, priority 2011, dated 2015)
# Molecular target: human NaV subtype, like NaV 1.7 (Homo sapiens, UniProt Q15858)
# Assay: E-VIPR optical membrane potential assay with electrical stimulation
# Assay type: cell-based
# Conditions: active against one or more sodium channels; assay and NaV subtype not specified for Table 3; read-out: IC50 Binned Activity Data
# Chain of human NaV subtype, like NaV 1.7 (Q15858 whole entry): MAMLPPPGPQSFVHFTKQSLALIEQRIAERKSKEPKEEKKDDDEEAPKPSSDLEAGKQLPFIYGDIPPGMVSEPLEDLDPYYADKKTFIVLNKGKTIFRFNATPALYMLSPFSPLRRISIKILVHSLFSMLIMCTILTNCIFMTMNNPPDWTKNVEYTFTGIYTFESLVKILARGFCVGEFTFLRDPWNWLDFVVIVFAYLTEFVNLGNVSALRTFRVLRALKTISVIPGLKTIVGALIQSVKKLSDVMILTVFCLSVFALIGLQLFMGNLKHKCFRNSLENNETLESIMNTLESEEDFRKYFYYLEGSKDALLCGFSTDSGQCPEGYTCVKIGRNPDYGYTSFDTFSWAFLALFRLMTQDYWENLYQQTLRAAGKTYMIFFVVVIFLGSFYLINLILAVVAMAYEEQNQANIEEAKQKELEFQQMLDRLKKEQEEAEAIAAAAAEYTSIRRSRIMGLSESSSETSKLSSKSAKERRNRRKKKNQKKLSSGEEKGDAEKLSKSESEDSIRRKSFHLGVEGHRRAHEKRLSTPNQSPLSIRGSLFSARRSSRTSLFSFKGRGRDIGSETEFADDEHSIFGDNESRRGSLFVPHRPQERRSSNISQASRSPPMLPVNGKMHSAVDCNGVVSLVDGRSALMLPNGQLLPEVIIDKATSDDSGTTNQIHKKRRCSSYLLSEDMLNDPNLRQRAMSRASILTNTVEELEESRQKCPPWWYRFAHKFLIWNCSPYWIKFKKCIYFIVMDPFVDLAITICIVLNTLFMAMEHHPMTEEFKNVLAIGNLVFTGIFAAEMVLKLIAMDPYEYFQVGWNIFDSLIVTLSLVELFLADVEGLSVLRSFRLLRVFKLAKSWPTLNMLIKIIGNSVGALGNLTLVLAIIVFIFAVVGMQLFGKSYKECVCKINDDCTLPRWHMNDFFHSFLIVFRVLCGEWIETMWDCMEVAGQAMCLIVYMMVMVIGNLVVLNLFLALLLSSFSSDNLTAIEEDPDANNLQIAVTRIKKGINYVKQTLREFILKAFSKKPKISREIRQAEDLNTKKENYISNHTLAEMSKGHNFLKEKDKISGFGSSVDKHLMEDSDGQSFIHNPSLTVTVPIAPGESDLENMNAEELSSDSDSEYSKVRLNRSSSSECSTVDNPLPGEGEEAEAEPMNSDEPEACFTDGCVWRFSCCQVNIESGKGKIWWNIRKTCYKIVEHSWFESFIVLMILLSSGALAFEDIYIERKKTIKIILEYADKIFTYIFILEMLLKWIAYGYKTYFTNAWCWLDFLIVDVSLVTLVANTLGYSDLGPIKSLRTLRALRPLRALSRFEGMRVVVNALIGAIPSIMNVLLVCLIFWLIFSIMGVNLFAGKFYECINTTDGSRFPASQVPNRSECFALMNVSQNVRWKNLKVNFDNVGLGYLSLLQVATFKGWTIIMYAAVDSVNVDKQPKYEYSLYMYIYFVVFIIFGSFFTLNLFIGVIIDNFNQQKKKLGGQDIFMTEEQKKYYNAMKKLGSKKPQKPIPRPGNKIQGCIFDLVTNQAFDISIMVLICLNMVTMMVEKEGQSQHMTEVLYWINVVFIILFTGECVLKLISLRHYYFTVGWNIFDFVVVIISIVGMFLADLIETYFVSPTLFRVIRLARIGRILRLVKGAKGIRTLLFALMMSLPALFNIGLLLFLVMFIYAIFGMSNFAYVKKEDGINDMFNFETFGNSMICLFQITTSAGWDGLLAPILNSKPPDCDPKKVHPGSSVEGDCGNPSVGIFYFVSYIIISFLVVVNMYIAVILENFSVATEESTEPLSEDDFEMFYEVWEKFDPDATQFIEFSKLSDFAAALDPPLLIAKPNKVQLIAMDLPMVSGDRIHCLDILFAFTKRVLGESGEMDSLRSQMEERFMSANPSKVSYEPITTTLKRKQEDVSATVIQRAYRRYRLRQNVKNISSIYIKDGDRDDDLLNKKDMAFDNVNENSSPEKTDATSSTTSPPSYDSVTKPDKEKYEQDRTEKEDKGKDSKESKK
row,SMILES,IC50
1,COCC1CN(c2ncccn2)CC2(CCN(C(=O)c3ccc(OC(C)C)c(C)n3)CC2)O1 (stereo not drawn) [Compound 282],< 2000 nM
2,Cc1cc(C(=O)N2CCC3(CC2)CN(CC#N)CC(c2ccccc2)O3)ccc1OC(C)C (stereo not drawn) [Compound 283],< 2000 nM
3,COCC1CN(c2ncccn2)CC2(CCN(C(=O)c3ccc(OC)c(C(F)(F)F)c3)CC2)O1 (stereo not drawn) [Compound 284],< 2000 nM
4,COCC1CN(C2CCC2)CC2(CCN(C(=O)c3ccc(OC(C)C)c(C)c3)CC2)O1 (stereo not drawn) [Compound 285],< 2000 nM
5,COCC1CN(c2ccccc2)CC2(CCN(C(=O)c3ccc(OC(C)C)c(C)c3)CC2)O1 (stereo not drawn) [Compound 286],< 2000 nM
6,COCC1CN(CC2CC2)CC2(CCN(C(=O)c3ccc(OC(C)C)c(C)c3)CC2)O1 (stereo not drawn) [Compound 287],< 2000 nM
7,CCC1CN(c2ccccn2)CC2(CCN(C(=O)c3ccc(C4(O)CCCC4)cc3)CC2)O1 (stereo not drawn) [Compound 288],< 2000 nM
8,Cc1cc(C(=O)N2CCC3(CC2)CN(C(=O)C(C)C)CC(c2ccccc2)O3)ccc1OC(C)C (stereo not drawn) [Compound 289],2000 to 5000 nM
9,O=C(c1ccc(C(F)(F)F)cn1)N1CCC2(CC1)CN(CC(F)F)CC(c1ccccc1)O2 (stereo not drawn) [Compound 290],> 5000 nM
10,COCC1CN(c2cccnc2)CC2(CCN(C(=O)c3ccc(OC(C)C)c(C)c3)CC2)O1 (stereo not drawn) [Compound 291],< 2000 nM
11,COC(=O)C(C)(C)c1ccc(C(=O)N2CCC3(CC2)CN(CC(F)(F)F)CC(c2ccccc2)O3)cc1OC (stereo not drawn) [Compound 292],2000 to 5000 nM
12,CCN(CC)C(=O)c1ccc(C(=O)N2CCC3(CC2)CN(CC(F)(F)F)CC(c2ccccc2)O3)cc1F (stereo not drawn) [Compound 293],< 2000 nM
13,CCC1CN(c2ccccn2)CC2(CCN(C(=O)c3ccc(OC(C)C)c(C)c3)CC2)O1 (stereo not drawn) [Compound 295],< 2000 nM
14,Cc1cc(C(=O)N2CCC3(CC2)CN(CC(F)F)CC(c2ccccn2)O3)ccc1OCCO (stereo not drawn) [Compound 296],> 5000 nM
15,COc1cc(C(=O)N2CCC3(CC2)CN(CC(F)F)CC(c2ccccn2)O3)cc(F)c1OC(C)C (stereo not drawn) [Compound 297],< 2000 nM
16,Cc1cn[nH]c1C1CN(CC(F)F)CC2(CCN(C(=O)c3ccc(OC(C)C)c(F)c3)CC2)O1 (stereo not drawn) [Compound 298],< 2000 nM
17,O=C(c1cccc(F)c1OC(F)F)N1CCC2(CC1)CN(CC(F)(F)F)CC(c1ccccc1)O2 (stereo not drawn) [Compound 299],> 5000 nM
18,COCC1CN(c2ncccn2)CC2(CCN(C(=O)c3ccc(C4(O)CCCC4)cc3)CC2)O1 (stereo not drawn) [Compound 300],< 2000 nM
19,Cc1cc(C(=O)N2CCC3(CC2)CN(CC(F)(F)F)CC(c2ccccc2)O3)ccc1OC(C)C (stereo not drawn) [Compound 301],< 2000 nM
20,COCC1CN(C2CCCC2)CC2(CCN(C(=O)c3ccc(OC(C)C)c(C)c3)CC2)O1 (stereo not drawn) [Compound 302],< 2000 nM
21,COCC1CN(c2ncccn2)CC2(CCN(C(=O)c3ccc(OC(C)C)c(C#N)c3)CC2)O1 (stereo not drawn) [Compound 303],< 2000 nM
22,COCC1CN(C2CCC(C(C)C)CC2)CC2(CCN(C(=O)c3ccc(OC(C)C)c(C)c3)CC2)O1 (stereo not drawn) [Compound 304],< 2000 nM
23,Cc1cc(C(=O)N2CCC3(CC2)CN(CC(F)F)CC(c2ccccn2)O3)ccc1OCCCO (stereo not drawn) [Compound 305],2000 to 5000 nM
24,Cc1cc(C(=O)N2CCC3(CC2)CN(CC(F)F)CC(c2ccn(C)n2)O3)ccc1OC(C)C (stereo not drawn) [Compound 306],< 2000 nM
25,CC(C)(O)c1ccc(C(=O)N2CCC3(CC2)CN(CC(F)F)CC(c2ccc(F)cc2)O3)cc1F (stereo not drawn) [Compound 307],< 2000 nM
26,CCN1CC(c2ccccc2)OC2(CCN(C(=O)c3ccc(OC(C)C)nc3)CC2)C1 (stereo not drawn) [Compound 308],> 5000 nM
27,Cc1cnc(C2CN(CC(F)(F)F)CC3(CCN(C(=O)c4ccc(OC(C)C)c(C)c4)CC3)O2)o1 (stereo not drawn) [Compound 309],< 2000 nM
